Assay results from paper PMC7254866 (ACS chemical biology, 2019).

Key:
[1] = tested on: FpL2-6, H11G11, Rg3, and Rh2 GUS enzymes; test: Catalytic efficiency across the four regorafenib-glucuronide processing enzymes; type: biochemical; conditions: 4-MUG versus regorafenib-glucuronide
[2] = molecular target: Rh2GUS (Roseburia hominis, UniProt A0A395V8I7); test: Inhibition of Rh2GUS; type: biochemical
[3] = molecular target: FpL2-6 (Faecalibacterium prausnitzii, UniProt D4K3H3); test: Inhibition of FpL2-6 GUS; type: biochemical
[4] = molecular target: (UniProt D5GU71); test: Inhibition of H11G11 GUS; type: biochemical, uncultured taxon
Chain of (UniProt D5GU71) (D5GU71 1-754): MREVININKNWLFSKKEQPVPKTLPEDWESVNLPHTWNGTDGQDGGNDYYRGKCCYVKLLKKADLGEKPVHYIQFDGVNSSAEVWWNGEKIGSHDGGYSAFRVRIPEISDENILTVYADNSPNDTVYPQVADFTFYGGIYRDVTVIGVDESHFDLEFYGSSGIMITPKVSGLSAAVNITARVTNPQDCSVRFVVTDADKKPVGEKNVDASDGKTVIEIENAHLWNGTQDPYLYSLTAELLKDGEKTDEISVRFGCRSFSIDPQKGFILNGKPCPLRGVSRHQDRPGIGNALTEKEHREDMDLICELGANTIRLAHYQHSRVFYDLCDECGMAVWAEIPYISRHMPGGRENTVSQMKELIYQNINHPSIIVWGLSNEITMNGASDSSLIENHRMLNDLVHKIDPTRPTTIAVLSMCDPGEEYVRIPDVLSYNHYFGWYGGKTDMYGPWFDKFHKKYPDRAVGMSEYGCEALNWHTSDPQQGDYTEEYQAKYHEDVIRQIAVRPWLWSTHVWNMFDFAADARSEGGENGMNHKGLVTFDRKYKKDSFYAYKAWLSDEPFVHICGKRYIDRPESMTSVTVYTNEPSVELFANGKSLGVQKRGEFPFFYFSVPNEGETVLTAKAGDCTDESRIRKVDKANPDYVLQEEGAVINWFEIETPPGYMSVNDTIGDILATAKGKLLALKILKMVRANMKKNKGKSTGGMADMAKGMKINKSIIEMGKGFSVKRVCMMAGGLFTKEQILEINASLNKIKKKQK

[5] = tested on: G380M variant of FpL2-6; test: Regorafenib-glucuronide processing by G380M variant of FpL2-6; type: biochemical, Faecalibacterium prausnitzii
[6] = tested on: intestinal homogenate lysates (cecum, small intestine, large intestine); test: Regorafenib-glucuronide conversion in intestinal homogenates of SPF mice; type: in vitro ADME, C57BL/6J mice
[7] = tested on: gut microbial GUS enzymes in mouse fecal samples; type: in vitro ADME, mice (C57BL/6 and BALB/c)
[8] = tested on: cecum and cecal contents of germ-free mice; test: Regorafenib-glucuronide conversion in ceca of germ-free mice; type: in vitro ADME, germ-free C57BL/6J mice; conditions: cecum and cecal contents of 5 GF mice, 48 h incubation
[9] = tested on: gut microbial GUS enzymes in human feces; type: in vitro ADME

## Cc1cc(=O)oc2cc(O[C@@H]3O[C@H](C(=O)O)[C@@H](O)[C@H](O)[C@H]3O)ccc12 [4-MUG, 4-methylumbelliferyl glucuronide]
[1]
  rate relative to rates with regorafenib-glucuronide: 10–100 times faster

## Cc1c(-c2ccc(O)cc2)n(Cc2ccc(OCCN3CCCCCC3)cc2)c2ccc(O)cc12 [bazedoxifene]
[2]; toward Rh2GUS
  potency (in words): low micromolar

## O=C(c1ccc(OCCN2CCCCC2)cc1)c1c(-c2ccc(O)cc2)sc2cc(O)ccc12 [raloxifene]
[3]
  IC50: 78 ± 9 µM
[4]
  IC50: 100 ± 5 µM
[2]
  IC50: 13 ± 3 µM

## regorafenib-glucuronide
[5]; G380M variant versus FpL2-6 wild type
  increase in catalytic efficiency: 40 fold
[5]; substrate regorafenib-glucuronide, G380M variant of FpL2-6
  catalytic efficiency: 4560 s⁻¹ M⁻¹
[6]; cecal extracts of SPF mice, 48 h
  regorafenib-glucuronide converted to regorafenib: almost all
[6]; small and large intestine homogenates, after 48 h
  conversion of regorafenib-glucuronide to regorafenib: relatively little conversion
[7]
  conversion of regorafenib-glucuronide to regorafenib: no conversion
[8]
  reactivation of regorafenib from regorafenib-glucuronide: neither the cecum nor its contents were able to catalyze the reactivation
[9]
  regorafenib-glucuronide reactivation: no regorafenib-glucuronide reactivation
